Experimental data from US20250129086A1, “COMPOUND FOR DEGRADING EGFR PROTEIN AND USE THEREOF” (TYK MEDICINES, INC., priority 2021, published 2025).

Key:
Type in all cases: cell-based, human
[1] = system: H1975 (EGFR L858R/T790M double mutation); test: Cell antiproliferative assay (CTG, 72 h), H1975; conditions: Homo sapiens, NCI-H1975, 72 h, Table 2, H1975 cells
Description: (§1) Test Example 1 Cell Antiproliferative Assay
(§2) H1975: with EGFR: L858R/T790M double mutation; PC-9 with EGFR exon 19 deletion, HCC827 with exon 19 deletion mutation. CellCounting-Lite2.0, Trypsin EDTA, 37° C. CO2 incubator, cell counter, EnVision Serial No.1050454. II. Experimental preparation:
(§3) • (A) Trypsin EDTA was used to digest log-phase cells, medium was added to terminate the reaction, and a cell suspension was made by blowing and mixing with a pipette. • (B) Cell concentration was determined using Vi-cell, and a suspension of 15,000-25,000 cells per milliliter was made depending on the purpose of the experiment and the characteristics of the cells. • (C) After the cell suspension was prepared, it was gently mixed and 100 microliters per well was added so that the density of cells to be tested was 1500-2500 per well.
(§4) • (A) About 2 mg of compound was weighed, and the volume of DMSO required was calculated according to the formula: compound mass (mg)*compound purity (%)/compound molecular weight*1000 • (B) The inoculated cell culture plates were incubated in an incubator and the compounds with concentration gradient were added after about 24 hours. • (C)10 Mm of compound stock solution was diluted to […] with medium, and 50 Mm of compound solution was added sequentially to the second column of the deep-well plate, and […] of medium containing 0.5% DMSO was added to the third to eleventh columns. • (D) Gradient dilution: 125 μl of solution was pipetted from the second column and added to the third column, after mixing; another 125 μl of solution was pipetted from the third column and added to the fourth column, and the operation was repeated until the tenth column. • (E)25 μl of compound was pipetted from the deep-well plate into a 96-well culture plate using a multichannel pipette, and each compound was repeated three times on the 96-well plate. A maximum concentration of 10,000 nm with concentration gradient of 1:4 was eventually formed on the 96-well plate.
(§5) • (A)96-well plates were incubated in an incubator for 72 h. The effect of the compounds was observed under an inverted microscope. • (B)25 μl of CTG solution was added to each well, the plate was put on shaker for 10 minutes and the […] of each well was read.
(§6) The cell viability rate (% Cell Viability) was calculated using the following formula: • % Cell Viability=100%×(Lum_Sample-Lum_LC)/(Lum_HC-Lum_LC) • Lum_HC: Cell reading of 0.1% DMSO control • Lum_Sample: Cell reading with compound added • Lum_LC: Reading of Blank media • IC50 values were obtained by curve fitting with GraphPad Prism 8 software.

[2] = system: PC-9 (EGFR exon 19 deletion); test: Cell antiproliferative assay (CTG, 72 h), PC-9; conditions: Homo sapiens, PC-9, 72 h, Table 2, PC-9 cells
Description: as §1, §2, §3, §4, §5, §6

[3] = system: HCC827 (exon 19 deletion mutation); test: Cell antiproliferative assay (CTG, 72 h), HCC827; conditions: Homo sapiens, HCC827, 72 h, Table 2, HCC827 cells
Description: as §1, §2, §3, §4, §5, §6

IC50 [1] [nM] | IC50 [2] [nM] | IC50 [3] [nM] | SMILES
10 to 100 | 100 to 1000 | 100 to 1000 | COc1cc(N2CCN(C(=O)CN3CCC(c4ccc(NC5CCC(=O)NC5=O)cc4)CC3)CC2)ccc1Nc1ncc(Cl)c(Nc2ccccc2C(=O)NC(C)C)n1 (stereo not drawn) [Compound T-259]
100 to 1000 | 100 to 1000 | 100 to 1000 | COc1cc(N2CCN(C(=O)CN3CCC(c4ccc(NC5CCC(=O)NC5=O)cc4)CC3)CC2)ccc1Nc1ncc(C(F)(F)F)c(Nc2ccccc2C(=O)Nc2ccccc2)n1 (stereo not drawn) [Compound T-267]
10 to 100 | 10 to 100 | 10 to 100 | COc1cc(N2CCN(C(=O)CN3CCC(c4ccc(NC5CCC(=O)NC5=O)cc4)CC3)CC2)ccc1Nc1ncc(Cl)c(Nc2cccc3c2C(=O)N(C)C3)n1 (stereo not drawn) [Compound T-268]
≤ 10 | 10 to 100 | 10 to 100 | COc1cc(N2CCN(C(=O)CN3CCC(c4ccc(NC5CCC(=O)NC5=O)cc4)CC3)CC2)ccc1Nc1ncc(Br)c(Nc2cccc3c2C(=O)NC3)n1 (stereo not drawn) [Compound T-272]
10 to 100 | 10 to 100 | 10 to 100 | COc1cc(N2CCN(C(=O)CN3CCC(c4ccc(NC5CCC(=O)NC5=O)cc4)CC3)CC2)c(C#N)cc1Nc1ncc(Cl)c(Nc2ccccc2C(C)=O)n1 (stereo not drawn) [Compound T-282]
≤ 10 | 10 to 100 | 10 to 100 | CNC(=O)c1ccccc1Nc1nc(Nc2cc(C#N)c(N3CCN(C(=O)CN4CCC(c5ccc(NC6CCC(=O)NC6=O)cc5)CC4)CC3)cc2OC)ncc1Cl (stereo not drawn) [Compound T-283]
10 to 100 | 10 to 100 | 10 to 100 | COc1cc(N2CCN(C(=O)CN3CCC(c4ccc(NC5CCC(=O)NC5=O)cc4)CC3)CC2)c(C#N)cc1Nc1ncc(Br)c(Nc2ccccc2C(C)=O)n1 (stereo not drawn) [Compound T-286]
10 to 100 | 10 to 100 | 10 to 100 | COc1cc(N2CCN(C(=O)CN3CCC(c4ccc(NC5CCC(=O)NC5=O)cc4)CC3)CC2)c(C(F)(F)F)cc1Nc1ncc(Br)c(Nc2ccccc2C(C)=O)n1 (stereo not drawn) [Compound T-289]
≤ 10 | 10 to 100 | 10 to 100 | CNC(=O)c1ccccc1Nc1nc(Nc2cc(C(F)(F)F)c(N3CCN(C(=O)CN4CCC(c5ccc(NC6CCC(=O)NC6=O)cc5)CC4)CC3)cc2OC)ncc1Br (stereo not drawn) [Compound T-292]
≤ 10 | 10 to 100 | 10 to 100 | CNC(=O)c1ccccc1Nc1nc(Nc2ccc(N3CCN(C(=O)CN4CCC(c5ccc(NC6CCC(=O)NC6=O)cc5F)CC4)CC3)cc2OC)ncc1Br (stereo not drawn) [Compound T-295]
10 to 100 | 10 to 100 | 10 to 100 | CNC(=O)c1ccccc1Nc1nc(Nc2ccc(N3CCN(C(=O)CC4(F)CCN(c5ccc(NC6CCC(=O)NC6=O)cc5)CC4)CC3)cc2OC)ncc1Cl (stereo not drawn) [Compound T-300]
10 to 100 | 10 to 100 | 10 to 100 | COc1cc(N2CCN(C(=O)CC3(F)CCN(c4ccc(NC5CCC(=O)NC5=O)cc4)CC3)CC2)ccc1Nc1ncc(Cl)c(Nc2ccccc2C(C)=O)n1 (stereo not drawn) [Compound T-303]
≤ 10 | 10 to 100 | 10 to 100 | CNC(=O)c1ccccc1Nc1nc(Nc2ccc(N3CCN(C(=O)CN4CCC(c5ccc(NC6CCC(=O)NC6=O)cc5)C(F)(F)C4)CC3)cc2OC)ncc1Br (stereo not drawn) [Compound T-313]
10 to 100 | 100 to 1000 | 100 to 1000 | COc1cc(N2CCN(C(=O)CN3CCC(c4ccc(NC5CCC(=O)NC5=O)cc4)CC3)CC2)c(C)cc1Nc1ncc(Cl)c(Nc2ccccc2P(C)(C)=O)n1 (stereo not drawn) [Compound T-327]
100 to 1000 | 100 to 1000 | 100 to 1000 | O=C1CCC(Nc2ccc(C3CCN(CC(=O)N4CCN(c5ccc(Nc6ncc(Cl)c(Nc7ccccc7)n6)c(Cl)c5)CC4)CC3)cc2)C(=O)N1 (stereo not drawn) [Compound T-328]
100 to 1000 | 100 to 1000 | 100 to 1000 | CP(C)(=O)c1ccccc1Nc1nc(Nc2ccc(N3CCN(C(=O)CN4CCC(c5ccc(NC6CCC(=O)NC6=O)cc5)CC4)CC3)cc2Cl)ncc1Cl (stereo not drawn) [Compound T-330]

IC50 [1] [nM] | IC50 [2] [nM] | IC50 [3] [nM] | SMILES
100 to 1000 | 100 to 1000 | ≥ 1000 | COc1cc(C2CCN(C(=O)CN3CCC(c4ccc(NC5CCC(=O)NC5=O)cc4)CC3)CC2)ccc1Nc1ncc(Cl)c(Nc2ccccc2P(C)(C)=O)n1 (stereo not drawn) [Compound T-331]
100 to 1000 | 100 to 1000 | 100 to 1000 | COc1cc(N2CCN(C(=O)CN3CCC(c4ccc(Cn5ccc(=O)[nH]c5=O)cc4)CC3)CC2)ccc1Nc1ncc(Cl)c(Nc2ccccc2C(C)=O)n1 [Compound T-332]
100 to 1000 | 100 to 1000 | 100 to 1000 | COc1cc(N2CCN(C(=O)CN3CCC(c4ccc(CN5CCC(=O)NC5=O)cc4)CC3)CC2)ccc1Nc1ncc(Cl)c(Nc2ccccc2C(C)=O)n1 [Compound T-337]
100 to 1000 | 100 to 1000 | 100 to 1000 | COc1cc(N2CCN(CC(=O)N3CCC(c4ccc(NC5CCC(=O)NC5=O)cc4)CC3)CC2)ccc1Nc1ncc(Cl)c(Nc2ccccc2C(C)=O)n1 (stereo not drawn) [Compound T-338]
100 to 1000 | 100 to 1000 | 100 to 1000 | C=CC(=O)Nc1cc(Nc2ncc(C(F)(F)F)c(Nc3ccccc3)n2)c(OC)cc1N1CCN(C(=O)CN2CCC(c3ccc(NC4CCC(=O)NC4=O)cc3)CC2)CC1 (stereo not drawn) [Compound T-339]
10 to 100 | ≥ 1000 | 100 to 1000 | COc1cc(N2CCN(C(=O)CN3CCC(c4ccc(NC5CCC(=O)NC5=O)cc4)CC3)CC2)ccc1Nc1ncc(Cl)c(Nc2ccccc2C(=O)NC2CCCC2)n1 (stereo not drawn) [Compound T-341]
10 to 100 | 100 to 1000 | 10 to 100 | COc1cc(N2CCN(C(=O)CN3CCC(c4ccc(NC5CCC(=O)NC5=O)cc4)CC3)CC2)ccc1Nc1ncc(Br)c(Nc2ccccc2C(=O)NC2CCCC2)n1 (stereo not drawn) [Compound T-342]
10 to 100 | 10 to 100 | 10 to 100 | COc1cc(N2CCN(C(=O)CN3CCC(c4ccc(NC5CCC(=O)NC5=O)cc4)CC3)CC2)ccc1Nc1ncc(C(F)(F)F)c(Nc2ccccc2C(=O)NC2CCCC2)n1 (stereo not drawn) [Compound T-343]
10 to 100 | 100 to 1000 | 100 to 1000 | COc1cc(N2CCC(N(C)C(=O)CN3CCC(c4ccc(NC5CCC(=O)NC5=O)cc4)CC3)CC2)ccc1Nc1ncc(Cl)c(Nc2ccccc2C(C)=O)n1 (stereo not drawn) [Compound T-353]
10 to 100 | 10 to 100 | 10 to 100 | CNC(=O)c1ccccc1Nc1nc(Nc2cc(C)c(N3CCN(C(=O)CN4CCC(c5ccc(NC6CCC(=O)NC6=O)cc5)CC4)C(C)C3)cc2OC)ncc1Cl (stereo not drawn) [Compound T-355]
10 to 100 | 10 to 100 | 10 to 100 | CNC(=O)c1ccccc1Nc1nc(Nc2cc(C)c(N3CCN(C(=O)CN4CCC(c5ccc(NC6CCC(=O)NC6=O)cc5)CC4)C(C)C3)cc2OC)ncc1Br (stereo not drawn) [Compound T-356]
10 to 100 | 10 to 100 | 10 to 100 | CNC(=O)c1ccccc1Nc1nc(Nc2cc(C)c(N3CCN(C(=O)CN4CCC(c5ccc(NC6CCC(=O)NC6=O)cc5)CC4)C(C)C3)cc2OC)ncc1C(F)(F)F (stereo not drawn) [Compound T-357]
10 to 100 | 10 to 100 | 10 to 100 | CNC(=O)c1ccccc1Nc1nc(Nc2cc(C)c(N3CCN(C(=O)CN4CCC(c5ccc(NC6CCC(=O)NC6=O)cc5)CC4)CC3C)cc2OC)ncc1Br (stereo not drawn) [Compound T-359]
10 to 100 | 10 to 100 | 10 to 100 | CNC(=O)c1ccccc1Nc1nc(Nc2cc(C)c(N3CCN(C(=O)CN4CCC(c5ccc(NC6CCC(=O)NC6=O)cc5F)CC4)CC3)cc2OC)ncc1Cl (stereo not drawn) [Compound T-367]
10 to 100 | 10 to 100 | 10 to 100 | CNC(=O)c1ccccc1Nc1nc(Nc2cc(C)c(N3CCN(C(=O)CN4CCC(c5ccc(NC6CCC(=O)NC6=O)cc5F)CC4)CC3)cc2OC)ncc1Br (stereo not drawn) [Compound T-368]
10 to 100 | 10 to 100 | 10 to 100 | CNC(=O)c1ccccc1Nc1nc(Nc2cc(C)c(N3CCN(C(=O)CN4CCC(c5ccc(NC6CCC(=O)NC6=O)cc5F)CC4)CC3)cc2OC)ncc1C(F)(F)F (stereo not drawn) [Compound T-369]
